For data set [1], the system named is conscious rats. Nature of the data set: E-2078 effect on urine flow and sodium excretion in conscious rats (Salas et al.). As to conditions: 50 μg i.v., after 15-30 minutes. The class given is in vivo, rat.
Data set [2] relates to conscious rats. Conditions: 50 μg i.v., cited from earlier work.
Data set [3] has as its system rats anesthetized with pentobarbital. Conditions: 50 μg i.v.; cited from earlier work.
Data set [4] deals with isoflurane-anesthetized rats under surgery. Nature of the data set: Renal response to drug given after start of surgery and isoflurane anesthesia. It is filed as in vivo, Sprague-Dawley rat.
Data set [5] has as its system human patients during general anesthesia and surgery. Conditions: administered 90 minutes before anesthesia; cited from earlier work.
Data set [6] concerns rats during surgery under isoflurane anesthesia. More on the design: species or system Sprague-Dawley rat. As to conditions: rat, in vivo.
For a further data set, the system named is conscious humans. Conditions: cited from earlier work.
Where [7] appears, read: intravenous bolus injection during isoflurane anesthesia and surgery.
The mark [8] stands for this setting: conscious healthy humans (Rimoy 1991).

Entries after “also recorded” stand apart in the source; their conditions may differ.

Take “(N-methyl-Tyr^1,N-methyl-Arg^7-D-Leu^8)-dynorphin-A(1-8) ethylamide [E-2078]”: in the data set on conscious rats [1], the “increase over the baseline flow rate” value stood at 78 µL/min. Also, the urine flow rate in the data set with conscious rats [2] (after 15-30 minutes) was 118 ± 22 µL/min; in data set [3] it was 6.3 ± 1.0 µL/min. Further, the urinary sodium excretion is reported as 1.4±0.4 μEq/min in the data set with conscious rats [2] (at 30-45 min) and 0.3±0.1 μEq/min in data set [3].

Consider `OC[C@@H](O)[C@@H](O)[C@H](O)[C@H](O)CO` [mannitol], for which, in data set [4] (setting [7]), the “course of urine flow rate after the peak” value was “not maintained and declined to the impaired levels observed before drug administration”; the urinary potassium excretion entry is “increase in urinary sodium and potassium excretion”; the urinary sodium excretion entry was “increase in urinary sodium and potassium excretion”; the “urine flow rate, peak” value was “up to 135 μl/min”.

As to `NS(=O)(=O)c1cc(C(=O)O)c(NCc2ccco2)cc1Cl` [furosemide], the “effect on urine flow rate” value in data set [4] (continuous intravenous infusion after start of surgery and isoflurane (U-50,488H 100 μg/kg/min)) is reported as “returned to the impaired pre-drug levels”. Further, in data set [4] (continuous intravenous infusion after start of surgery and isoflurane (U-50,488H 100 μg/kg/min), saline infusion 55 μl/min), the “urine flow rate, peak” value is listed as “about 200 μl/min”. Further, in data set [4] (setting [7]), the “course of urine flow rate after the peak” value is reported as “declined rapidly” and the “urine flow rate, peak” value was “about 300 μl/min”.

Turning to `Clc1cccc(Cl)c1N=C1NCCN1` [clonidine], in data set [5], the diuresis result was “significant diuresis during surgery”; the “losses of sodium and potassium” value is “substantial losses of sodium and potassium”; the “mean arterial pressure and heart rate” value was “substantial decrease in mean arterial pressure and heart rate”.

Turning to `C=C1CC2(CCC(N3CCCC3)C(N(C)C(=O)Cc3ccc(Cl)c(Cl)c3)C2)OC1=O` (stereo not shown) [U-62,066E, 3,4-dichloro-N-methyl-N-(3-methylene-2-oxo-8-(1-pyrrolidinyl)-1-oxaspiro(4,5)dec-7-yl)-benzeneacetamide], in data set [6], the urinary potassium excretion entry is “gradual increase; also recorded: significant and steady increase toward a new plateau level”; the urinary sodium excretion entry was “remained low throughout the duration of the experiment”; the urine flow rate entry is given as “remained elevated throughout the 6 hours of the study”. Also, the “central nervous system effects” value with conscious humans (3.2 μg/kg dose) was “sedation, significant dysphoria, and no significant euphoria”. In addition, the diuretic response result with conscious humans (5 μg/kg intramuscular) is “pronounced diuretic response”. In the data set on conscious humans (2 to 6 μg/kg intramuscular), the “sodium, potassium, or chloride excretion” value is “without increases in sodium, potassium, or chloride excretion” and the water diuresis result is on record as “induced water diuresis”. Also, in the data set on conscious humans (setting [8]), the urine osmolality entry is on record as “decreased urine osmolality” and the urine output result is given as “significantly increased urine output”. Further, the “diuretic potency relative to U-50,488H” value with conscious humans (in vivo) is reported as “about twice as potent a diuretic as U-50,488H”.

`CN1c2ccccc2C(c2ccccc2F)=NCC1CNC(=O)c1ccsc1` (single isomer, unassigned; (+)) [tifluadom, (+)-(1-methyl-2,3-thienyl-carboxyl)-aminomethyl-5-(2-fluorophenyl)H-2,3-dihydro-1,4-benzodiazepine]: in data set [6], the “effect on urine flow rate during surgery and isoflurane anesthesia” value is “remained steady (time 10) and consistently increased over time (time 20-90) until a plateau was reached (time 100-120)”; the urinary potassium excretion result is “remained low”; the urinary sodium excretion entry is recorded as “remained low”; the urine flow rate worked out at 20 µL/min. Besides, the urine osmolality result in data set [6] is recorded as “remained low”.

The values are drawn from patent US6468971B1, “Maintaining kidney function during surgery or trauma” (Board of Supervisors of Louisiana State University and …, priority 1998, dated 2002).
